Test results taken from patent US12702712B2, “Enteroendocrine cell-targeting polymer substance conjugated with photosensitizer, and medical use thereof for ameliorating metabolic disease” (The Catholic University of Korea Industry-Academic …, priority 2020, dated 2026).

Legend:
[1] = Singlet oxygen formation in aqueous phase (SOSG fluorescence, laser irradiation); details: 5 μg/mL in aqueous phase with SOSG; laser 670 nm, 4 J/cm^2, 20 mW/cm^2, 200 seconds
Protocol: Singlet oxygen sensor green (SOSG), which is a fluorescent detecting substance that directly reacts with singlet oxygen, was dispersed in an aqueous phase, oleic acid-polyethylene glycol-chlorin e6 (5 μg/mL) was added thereto, and the resulting mixture was mixed. As a comparative example, chlorin e6 (5 μg/mL) or polyethylene glycol-chlorin e6 (5 μg/mL) was used. When OA-PEG-Ce6 and SOSG coexisted in the aqueous phase, the mixture was irradiated with a laser (670 nm) (4 J/cm^2, 20 mW/cm^2, 200 seconds), and the degree of fluorescence was measured by an RF analyzer.

[2] = Dispersion in aqueous phase; assay type: physicochemical; details: water
[3] = test system: Human duodenal cells (HUTU-80); assay: Intracellular uptake by flow cytometry; assay type: cell-based; details: 2 μg/ml (based on chlorin e6), 1 hour and 4 hours
Protocol: Thereafter, the cells were treated with OA-PEG-Ce6 and polyethylene glycol-chlorin e6 as a comparative group at a concentration of 2 μg/ml (based on chlorin e6) for 1 hour and 4 hours, respectively. Thereafter, the cells were washed three times with DPBS, collected, and analyzed by a flow cytometer (BD FACSCanto II).

[4] = Obesity amelioration: body weight and fat mass after photodynamic therapy; assay type: in vivo, C57BL6 mice; details: high-fat diet mice, oral 10 mg/kg (based on chlorin e6), 22 days; for body weight, last day relative to before therapy, administration+light irradiation / fat mass, last day relative to before therapy, administration+light irradiation: laser 0.7 J/cm^2, repeated after 4 days; for fat mass, last day relative to before therapy, administration+light irradiation / fat mass, last day relative to before therapy, administration only: EchoMRI; for body weight, last day relative to before therapy, administration only / fat mass, last day relative to before therapy, administration only: no light
Protocol: After 4 days, photodynamic therapy was performed once again by the same method, and then, changes in body weight and fat mass were measured every other day for 22 days. The experimental results were shown in a bar graph by dividing the body weight and fat mass on the last day of the experiment by the body weight and fat mass before the photodynamic therapy and then converting the obtained values into percentages. Fat mass was measured with EchoMRI-500 (Echo MRI, Houston, TX).

[5] = test system: Human duodenal cells (HUTU-80); assay: Intracellular distribution by confocal laser scanning microscopy; assay type: cell-based; details: 2 μg/ml (based on chlorin e6), 1 hour; CLSM
Protocol: (§1) Human duodenal cells (HUTU-80) and canine kidney epithelial cells (MDCK) were treated with OA-PEG-Ce6 and polyethylene glycol-chlorin e6 at a concentration of 2 μg/ml (based on chlorin e6) for 1 hour. Thereafter, the cells were washed three times with DPBS and fixed with 4% paraformaldehyde, and the cell nuclei were stained at 4° C. Thereafter, cell images were confirmed under a confocal laser scanning microscope (CLSM).

[6] = test system: canine kidney epithelial cells (MDCK); assay: as above; assay type: cell-based; details: 2 μg/ml (based on chlorin e6), 1 hour; CLSM
Protocol: as §1

[7] = test system: Human duodenal cells (HUTU-80); assay: Cytotoxicity and phototoxicity, MTT test; details: for treatment concentration at which cell viability decreased, light irradiation group: laser 671 nm, 2 J/cm^2, concentration based on chlorin e6
Protocol: (§3) Human duodenal cells (HUTU-80) and canine kidney cells (MDCK) were aliquoted at a density of 1×10^4 cells/well in 0.2 ml portions in each well of a 96-well plate and cultured under conditions of 37° C. and 5% CO2 for 24 hours. On the next day, each well was treated with OA-PEG-Ce6 or polyethylene glycol-chlorin e6 at a concentration of 0.25 to 10 μg/ml (based on chlorin e6), and the corresponding treatment was performed by dividing a light non-irradiation group and a light irradiation group (irradiated with a laser with a wavelength of 671 nm at an intensity of 2 J/cm^2). Thereafter, cell viability was confirmed by the MTT test method.

[8] = test system: GIP; assay: Plasma GIP by ELISA after photodynamic therapy; assay type: in vivo, C57BL6 mice; details: high-fat diet mice, oral 10 mg/kg (based on chlorin e6), after 22 days; for plasma GIP concentration, administration+light irradiation: laser 0.7 J/cm^2, repeated after 4 days; for plasma GIP concentration, administration only: no light
Protocol: (§2) After 4 days, photodynamic therapy was performed once again by the same method, and then, mouse blood was collected after 22 days. Plasma was isolated from blood to measure the concentrations of GIP (Merk Millipore, USA) and insulin (anti-insulin+pro insulin antibody (10 μg/ml, ab8304, Abcam)) by enzyme-linked immunosorbent assay (ELISA).

[9] = test system: insulin; assay: Plasma insulin by ELISA after photodynamic therapy; assay type: in vivo, C57BL6 mice; details: high-fat diet mice, oral 10 mg/kg (based on chlorin e6), after 22 days; for plasma insulin concentration, administration+light irradiation: laser 0.7 J/cm^2, repeated after 4 days; for plasma insulin concentration, administration only: no light
Protocol: as §2

[10] = test system: Human duodenal cells (HUTU-80); assay: Competitive inhibition of uptake in presence of fatty acid (flow cytometry); assay type: cell-based; details: 10 μg/ml (based on chlorin e6) with 0.10 to 10.00 mg/ml oleylethanolamine, 2 hours
Protocol: Thereafter, the cells were treated with both 0.10 to 10.00 mg/ml oleylethanolamine and 10 μg/ml OA-PEG-Ce6 (based on chlorin e6) and cultured for 2 hours. Thereafter, the cells were washed three times with DPBS, collected, and analyzed by a flow cytometer (BD FACSCanto II).

[11] = test system: Human duodenal cells (HUTU-80); assay: Intracellular active oxygen formation (DCFDA, confocal microscope); assay type: cell-based; details: 2 μg/ml (based on chlorin e6), 2 hours, light 0, 0.5, 1 and 1.5 J/cm^2, increasing intensity
Protocol: Thereafter, the cells were treated with OA-PEG-Ce6 at a concentration of 2 μg/ml (based on chlorin e6) for 2 hours, and washed three times with DPBS. The cells were treated with DCFDA diluted in DPBS, cultured for 30 minutes, and further washed three times with DPBS. The cells were irradiated with a light with an intensity of 0, 0.5, 1 and 1.5 J/cm^2 to induce a reaction between DCFDA incorporated into the cells and singlet oxygen. Fluorescence appears when the two substances react. Thereafter, the cells were fixed with 4% paraformaldehyde, the cell nuclei were stained with DAPI, and images were confirmed under a confocal microscope.

[12] = mouse, in vivo, po, 10 mg/kg
Protocol: C57BL6 mice were fed a high-fat diet for 8 weeks to induce obese and diabetic conditions, and were divided into a control (PBS), a light irradiation group (Laser), a polyethylene glycol-chlorin e6 adiministration group (PC), a polyethylene glycol-chlorin e6 adiministration+light irradiation group (PCL), an OA-PEG-Ce6 adiministration group (OPC) and an OA-PEG-Ce6 adiministration+light sirradiation group (OPCL). Each group was orally administered the treated substance at a concentration of 10 mg/kg (based on chlorin e6), and after 30 minutes, a catheter was injected for endoscopic access and a laser was irradiated through the mouth.
Meanwhile, the accumulation degree of photosensitizer in the removed duodenum was confirmed with a fluorescence-labeled organism bioimaging instrument (Neo Science), and the fluorescence intensity of each tissue was graphically shown.

[13] = molecular target: T1, HEK-293 cells expressing GPR119 (Homo sapiens, UniProt Q8TDV5); assay: Uptake according to GPR119 expression level (flow cytometry); assay type: cell-based; details: GPR119 expression vector 0, 4 and 8 μg, 2 μg/ml (based on chlorin e6)
T1 construct: expressed in transfected cells; host or cells: HEK-293
T1 sequence (Q8TDV5 1-335): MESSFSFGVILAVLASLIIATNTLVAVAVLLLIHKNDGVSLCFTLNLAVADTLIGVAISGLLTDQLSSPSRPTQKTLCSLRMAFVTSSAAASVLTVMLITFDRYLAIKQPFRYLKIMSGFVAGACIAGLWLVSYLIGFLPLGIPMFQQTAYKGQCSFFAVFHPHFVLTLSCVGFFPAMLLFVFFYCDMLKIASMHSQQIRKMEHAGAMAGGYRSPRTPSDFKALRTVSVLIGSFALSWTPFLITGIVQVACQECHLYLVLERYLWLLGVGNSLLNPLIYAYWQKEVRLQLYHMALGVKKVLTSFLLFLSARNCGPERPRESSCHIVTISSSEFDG
Protocol: In order to confirm the mechanism by which OA-PEG-Ce6 targets enteroendocrine cells, human fetal kidney cells (HEK-293) expressing G protein-coupled receptor 119 (GPR119), which is a receptor known to recognize fatty acids, were produced.
After 24 hours, a GPR119 expression vector (0, 4 and 8 μg) and polyethyleneimine (PEI) were added to a serum-free medium and mixed for 30 minutes so as to form a complex, and then each cell was treated with the complex for 4 hours. Thereafter, the medium was replaced with a medium containing bovine serum, and GPR119 was allowed to be expressed by culturing the cells for 48 hours. It was confirmed by western blotting whether GPR119 was expressed.
HEK-293 cells expressing GPR119 were treated with OA-PEG-Ce6 and polyethylene glycol-chlorin e6 as a comparative group at a concentration of 2 μg/ml (based on chlorin e6) for 1 hour and 4 hours, respectively. Thereafter, the cells were washed three times with DPBS, collected, and analyzed by a flow cytometer (BD FACSCanto II).

[14] = test system: Human duodenal cells (HUTU-80)
Protocol: as §3

[15] = test system: canine kidney cells (MDCK); assay: Cytotoxicity and phototoxicity, MTT test; details: 0.25 to 10 μg/ml (based on chlorin e6), no light
Protocol: as §3

Molecule	dispersion in the aqueous phase [2]	body weight, last day relative to before therapy, administration+light irradiation [4] [%]	fat mass, last day relative to before therapy, administration+light irradiation [4] [%]	body weight, last day relative to before therapy, administration only [4] [%]	fat mass, last day relative to before therapy, administration only [4] [%]	treatment concentration at which cell viability decreased, light irradiation group [7] [µg/mL]	plasma GIP concentration, administration+light irradiation [8] [pg/mL]	plasma GIP concentration, administration only [8] [pg/mL]	plasma insulin concentration, administration+light irradiation [9] [pg/mL]	plasma insulin concentration, administration only [9] [pg/mL]	further results
C=Cc1c(C)c2cc3nc(c(CC(=O)O)c4[nH]c(cc5nc(cc1[nH]2)C(C)=C5CC)c(C)c4C(=O)O)[C@@H](CCC(=O)O)[C@@H]3C [chlorin e6]	could not be dispersed in the aqueous phase	–	–	–	–	–	–	–	–	–	ability to form active oxygen (singlet oxygen) [1]: could hardly form active oxygen
oleic acid-polyethylene glycol-chlorin e6 [OA-PEG-Ce6]	well dispersed in water	83.6	47.2	91.1	62.8	≥ 0.5	177.7	435.5	758.0	210.5	amount absorbed by the cells [3]: more absorbed by the cells than polyethylene glycol-chlorin e6 (PC); incorporation into cells versus conjugate without targeting substance [5]: more incorporated into cells than polyethylene glycol-chlorin e6 (PC); incorporation into HUTU-80 versus MDCK cells [6]: more incorporated into human duodenal cells (HUTU-80) than in canine kidney epithelial cells (MDCK); intracellular uptake (fluorescence intensity) with increasing oleylethanolamine [10]: intracellular uptake was reduced; intracellular active oxygen generation (DCFDA green fluorescence) [11]: generated a large amount of active oxygen; accumulation degree of photosensitizer in the duodenum [12]: remarkably large amount of photosensitizer was accumulated; intracellular accumulation rate with increasing GPR119 expression [13]: partially increased; concentration at which cell viability decreased, light non-irradiation group [14]: ≥ 2500 ng/mL
polyethylene glycol-chlorin e6 [reference compound]	well dispersed in water	90.1	60.0	93.1	68.4	≥ 2.5	339.6	289.1	374.3	304.3	change in cell viability, light non-irradiation group ([7]; 0.25 to 10 μg/ml (based on chlorin e6), no light): almost no change in cell viability; change in cell viability, light non-irradiation group [15]: no change in the cell viability
